The record followed here is US4297279A, “Imidazoledicarboxylic acid derivative” (Ajinomoto Co., Inc., priority 1979, dated 1981).

In brackets after ≈: the same amount, converted by molar mass. Counter-ions that a name gives are not always drawn.

The assay concerns Pseudomonas aeruginosa AJ 2116. Nature of the assay: Minimum Inhibitory Concentration (MIC) against Pseudomonas aeruginosa AJ 2116 in culture. Type of assay: cell-based. To be noted: for MIC: AJ2116, read-out: MIC (minimum concentration of the compound required to inhibit the growth of the test organism in a culture). An excerpt: Comparative Minimun Inhibitory Concentrations (MIC) (the minimum concentration of the compound in micrograms per milliliter required to inhibit the growth of the test organism in a culture) obtained using Pseudomonas aeruginosa AJ 2116 as the test organism, are presented in Table 2.

As for `CC1(C)S[C@@H]2[C@H](NC(=O)[C@H](N)c3ccccc3)C(=O)N2[C@H]1C(=O)O` [Ampicillin, reference compound], the MIC was over 500 µg/mL. Same read-out and setting: for `CC1(C)S[C@@H]2[C@H](NC(=O)C(C(=O)O)c3ccccc3)C(=O)N2[C@H]1C(=O)O` (stereo partly drawn) [Carbenicillin, reference compound] the value was 100 µg/mL (≈ 264 µM).

As to `CC(=O)OCC1=C(C(=O)O)N2C(=O)[C@@H](NC(=O)[C@H](NC(=O)c3[nH]cnc3C(=O)O)c3ccccc3)C2SC1` (stereo partly drawn) [Example 3a, 7-β-[D(-)-α-(4-carboxyimidazole-5-carboxamido)phenylacetamido]cephalosporanic acid], the “MIC (minimum concentration of the compound required to inhibit the growth of the test organism in a culture)” value turned out to be 50 µg/mL. Consider `CC1(C)S[C@@H]2[C@H](NC(=O)[C@H](NC(=O)c3nc[nH]c3C(=O)O)c3ccccc3)C(=O)N2[C@H]1C(=O)O` [Example 3b, D-α-(4-carboxyimidazole-5-carboxamido)benzylpenicillin], for which the MIC was 12.5 µg/mL (≈ 25.6 µM).

Turning to `CC1(C)S[C@@H]2[C@H](NC(=O)[C@H](NC(=O)c3nc[nH]c3C(=O)O)c3ccc(O)cc3)C(=O)N2[C@H]1C(=O)O` [Example 3c, D-α-(4-carboximidazole-5-carboxamido)-p-hydroxybenzylpenicillin monohydrate], the MIC worked out at 12.5 µg/mL. Still for that read-out and setting: for `CC(=O)OCC1=C(C(=O)O)N2C(=O)[C@@H](NC(=O)[C@H](NC(=O)c3nc[nH]c3C(=O)O)c3ccc(O)cc3)[C@H]2SC1` [Example 3d, 7-β-[D(-)-α-(4-carboxyimidazole-5-carboxamido)-p-hydroxyphenylacetamido]cephalosporanic acid] the value was 50 µg/mL (≈ 89.4 µM); for `Cn1nnnc1SCC1=C(C(=O)O)N2C(=O)[C@@H](NC(=O)[C@H](NC(=O)c3nc[nH]c3C(=O)O)c3ccccc3)[C@H]2SC1` [Example 4, 7-β-[D-(-)-α-(4-carboxyimidazole-5-carboxamido)phenylacetamido]-3-[[(1-methyl-1H-tetrazol-5-yl)thio]methyl]-3-cephem-4-carboxylic acid monohydrate], 50 µg/mL; for `O=C([O-])C1=C(C[n+]2ccc(CCS(=O)(=O)O)cc2)CS[C@@H]2[C@H](NC(=O)[C@H](NC(=O)c3nc[nH]c3C(=O)O)c3ccccc3)C(=O)N12` [Example 5, 7-β-[D-(-)-α-(4-carboxyimidazole-5-carboxamido)phenylacetamido]-3-(4-α-sulphoethylpyridiniummethyl-3-cephem-4-carboxylic acid disodium salt trihydrate], 12.5 µg/mL. The same measure, in the same setting: for `O=C(O)Cc1ccc[n+](CC2=C(C(=O)[O-])N3C(=O)[C@@H](NC(=O)[C@H](NC(=O)c4nc[nH]c4C(=O)O)c4ccccc4)[C@H]3SC2)c1` [Example 6, disodium salt] the value was 12.5 µg/mL.
